Test results: US7422868B2, “Microbial ATP extraction and detection system” (Promega Corporation, priority 2004, dated 2008)

How the values were obtained:
P. aeruginosa = details: CDTA added at t=12 minutes, final 20 mM, to mixture with 20 mM MgCl2
Procedure: Either 100 μl of bacterial culture or 100 μl of a 1×10^−9 M ATP stock (control) was added to 100 μl of the reconstitution reagent and luminescence was measured periodically over a 35 minute time period. The microbial cultures were tested at approximately 10^6 cells per well. Additional CDTA was added at t=12 minutes to each of the samples (final concentration=20 mM CDTA).

[1] = system: Pseudomonas aeruginosa (ATCC27853); assay: Effect of alternate divalent cations on ATP extraction and detection; format: cell-based; details: high (20 mM) divalent cation concentration; approximately 1×10^6 cells per well
Procedure: To evaluate the effects of alternate divalent cations on ATP extraction and detection at low (0.2 mM) and high (20 mM) divalent cation concentrations, Pseudomonas aeruginosa (ATCC27853) was grown in Mueller Hinton II (MH II) Broth at 37° C. overnight. The overnight culture was diluted 50-fold in fresh MH II Broth and then incubated for several hours to reach log phase. Cells were diluted to approximately 1×10^6 cells per well.

S. aureus ATCC 25923 = assay: Bioluminescent detection of bacterial growth as a function of antibiotic dose; format: cell-based; details: 19 hours of incubation at 37° C.; ATP detection assay
Procedure: Four bacterial strains were used to evaluate the relationship between microbial cell number and luminescence. Bacterial strains Escherichia coli (ATCC25922), Staphylococcus aureus (ATCC25923), Pseudomonas aeruginosa (ATCC27853) and Bacillus cereus (ATCC10987) were grown in Mueller Hinton II (MH II) Broth at 37° C. overnight. The overnight culture was diluted 50-fold in fresh MH II Broth and then incubated for several hours to reach log phase. Samples of the culture were serially diluted using MH II Broth in a 96-well plate. […] Luminescence was recorded on a Veritas™ Microplate Luminometer from Turner Biosystems (Sunnyvale, Calif.). S. aureus ATCC 25923 strain was grown in MH II Broth at 37° C. overnight. The overnight culture was diluted 100-fold in fresh MH II Broth and used as inoculum for the antimicrobial screen. Working stocks (50×) of LOPAC compounds and standard antibiotics were prepared in DMSO. Each well of the 96-well multiwell plate contained 245 μl of the inoculum and 5 μl of the 50× working stock. […] One hundred microliters of the culture was taken from each well, and the luciferase detection assay was performed as described in Example 9. Luminescence was measured using a Veritas™ Microplate Luminometer from Turner Biosystems (Sunnyvale, Calif.). […] Luminescence was recorded on a Veritas™ Microplate Luminometer from Turner Biosystems (Sunnyvale, Calif.).

Row | SMILES | effect on ATP detection (luminescence) [1] | further results
1 | O=C(O)CN(CC(=O)O)C1CCCCC1N(CC(=O)O)CC(=O)O (stereo not shown) [CDTA, 1,2-Cyclohexanedinitrilotetraacetic acid] | – | neutralization of inhibitory divalent cation effects on ATP detection (luminescence) (P. aeruginosa): capable of neutralizing the inhibitory effects of divalent cations
2 | [Ca+2].[Cl-].[Cl-] [Ca^2+, CaCl2] | impede ATP detection | –
3 | [Cl][Mn][Cl] [Mn^2+, MnCl2] | impede ATP detection | –
4 | Cc1onc(-c2ccccc2)c1C(=O)N[C@@H]1C(=O)N2[C@@H]1SC(C)(C)[C@@H]2C(=O)O [oxacillin] | – | relative percentage of RLU compared to the no-oxacillin control (S. aureus ATCC 25923): dose-dependent effect
